Test system: DMS 114 tumor spheroids, viability % test/control
Assay: Anticancer human tumor DMS 114 cell line growth inhibition;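 further: spheroids exposed to compounds for 7 days before read-out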;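 on viability, T/C: luminescence used as a proxy for viable cells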
Details: spheroids with HUVEC and MSC; for IC50: curve of first compound; for viability, T/C: stronger effect = lower value
Method in brief: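 Single agents and combinations were tested on spheroids built from tumor cells plus HUVEC and hMSC, at half-log dilutions starting at or near clinical Cmax, else 10 microM; final DMSO 0.25% (v/v).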

[1] = second compound 30 pM, first compound 0.0316 µM
[2] = second compound 30 pM, first compound 0.1 µM
[3] = second compound 30 pM, first compound 0.316 µM
[4] = second compound 30 pM, first compound 1 µM
[5] = second compound 30 pM, first compound 3.16 µM
[6] = second compound 30 pM, first compound 10 µM
[7] = second compound 94.9 pM, first compound 0.0316 µM
[8] = second compound 94.9 pM, first compound 0.1 µM
[9] = second compound 94.9 pM, first compound 0.316 µM
[10] = second compound 94.9 pM, first compound 1 µM
[11] = second compound 94.9 pM, first compound 3.16 µM
[12] = second compound 94.9 pM, first compound 10 µM
[13] = second compound 0.0003 µM, first compound 0.0316 µM
[14] = second compound 0.0003 µM, first compound 0.1 µM
[15] = second compound 0.0003 µM, first compound 0.316 µM
[16] = second compound 0.0003 µM, first compound 1 µM
[17] = second compound 0.0003 µM, first compound 3.16 µM
[18] = second compound 0.0003 µM, first compound 10 µM
[19] = second compound 0.000949 µM, first compound 0.0316 µM
[20] = second compound 0.000949 µM, first compound 0.1 µM
[21] = second compound 0.000949 µM, first compound 0.316 µM
[22] = second compound 0.000949 µM, first compound 1 µM
[23] = second compound 0.000949 µM, first compound 3.16 µM
[24] = second compound 0.000949 µM, first compound 10 µM
[25] = second compound 0.003 µM, first compound 0.0316 µM
[26] = second compound 0.003 µM, first compound 0.1 µM
[27] = second compound 0.003 µM, first compound 0.316 µM
[28] = second compound 0.003 µM, first compound 1 µM
[29] = second compound 0.003 µM, first compound 3.16 µM
[30] = second compound 0.003 µM, first compound 10 µM

CC(C)n1c(=O)n(C)c2cnc3cc(F)c(-c4ccc(OCCCN5CCCCC5)nc4)cc3c21 + COc1cc2c(cc1O)CCNC21CSC2c3c(OC(C)=O)c(C)c4c(c3C(COC1=O)N1C(O)C3Cc5cc(C)c(OC)c(O)c5C(C21)N3C)OCO4
IC50 (second compound 30 pM): 4100 nM | IC50 (second compound 94.9 pM): 1600 nM | IC50 (second compound 0.0003 µM): < 31.6 nM | IC50 (second compound 0.000949 µM): < 31.6 nM | IC50 (second compound 0.003 µM): < 31.6 nM | viability, T/C [1]: 75.2% | viability, T/C [2]: 102% | viability, T/C [3]: 91.9% | viability, T/C [4]: 84.7% | viability, T/C [5]: 59% | viability, T/C [6]: 19.2% | viability, T/C [7]: 63% | viability, T/C [8]: 52.2% | viability, T/C [9]: 54.2% | viability, T/C [10]: 58.5% | viability, T/C [11]: 42.3% | viability, T/C [12]: 16.5% | viability, T/C [13]: 21.9% | viability, T/C [14]: 23.5% | viability, T/C [15]: 22.8% | viability, T/C [16]: 20.6% | viability, T/C [17]: 22.3% | viability, T/C [18]: 8.07% | viability, T/C [19]: 2.63% | viability, T/C [20]: 2.62% | viability, T/C [21]: 2.73% | viability, T/C [22]: 5.38% | viability, T/C [23]: 2.74% | viability, T/C [24]: 1.03% | viability, T/C [25]: 0.2% | viability, T/C [26]: 0.22% | viability, T/C [27]: 0.17% | viability, T/C [28]: 0.14% | viability, T/C [29]: 0.12% | viability, T/C [30]: 0.23%

CC1COCCN1c1cc(-c2ccnn2C)c2ccnc(-c3ccn[nH]3)c2n1 (stereo not given) + COc1cc2c(cc1O)CCNC21CSC2c3c(OC(C)=O)c(C)c4c(c3C(COC1=O)N1C(O)C3Cc5cc(C)c(OC)c(O)c5C(C21)N3C)OCO4
IC50 (second compound 30 pM): < 31.6 nM | IC50 (second compound 94.9 pM): < 31.6 nM | IC50 (second compound 0.0003 µM): < 31.6 nM | IC50 (second compound 0.000949 µM): < 31.6 nM | IC50 (second compound 0.003 µM): < 31.6 nM | viability, T/C [1]: 28.2% | viability, T/C [2]: 21.9% | viability, T/C [3]: 17.3% | viability, T/C [4]: 11.8% | viability, T/C [5]: 7.86% | viability, T/C [6]: 10.1% | viability, T/C [7]: 17.6% | viability, T/C [8]: 15.9% | viability, T/C [9]: 12.1% | viability, T/C [10]: 9.53% | viability, T/C [11]: 6.98% | viability, T/C [12]: 8.67% | viability, T/C [13]: 9.96% | viability, T/C [14]: 7.98% | viability, T/C [15]: 7.58% | viability, T/C [16]: 5.84% | viability, T/C [17]: 4.87% | viability, T/C [18]: 5.28% | viability, T/C [19]: 1.57% | viability, T/C [20]: 1.39% | viability, T/C [21]: 1.26% | viability, T/C [22]: 0.89% | viability, T/C [23]: 1.12% | viability, T/C [24]: 0.45% | viability, T/C [25]: 0.2% | viability, T/C [26]: 0.22% | viability, T/C [27]: 0.15% | viability, T/C [28]: 0.15% | viability, T/C [29]: 0.12% | viability, T/C [30]: 0.22%

COc1ccc([C@@H](O)c2cc(-c3ncnc4cc(N5CCOCC5)ccc34)c(F)cc2Cl)nn1 + COc1cc2c(cc1O)CCNC21CSC2c3c(OC(C)=O)c(C)c4c(c3C(COC1=O)N1C(O)C3Cc5cc(C)c(OC)c(O)c5C(C21)N3C)OCO4
IC50 (second compound 30 pM): 4790 nM | IC50 (second compound 94.9 pM): 1680 nM | IC50 (second compound 0.0003 µM): < 31.6 nM | IC50 (second compound 0.000949 µM): < 31.6 nM | IC50 (second compound 0.003 µM): < 31.6 nM | viability, T/C [1]: 113% | viability, T/C [2]: 99.8% | viability, T/C [3]: 102% | viability, T/C [4]: 96.7% | viability, T/C [5]: 63.7% | viability, T/C [6]: 25.1% | viability, T/C [7]: 108% | viability, T/C [8]: 101% | viability, T/C [9]: 92.9% | viability, T/C [10]: 65.2% | viability, T/C [11]: 31.3% | viability, T/C [12]: 13.3% | viability, T/C [13]: 39.6% | viability, T/C [14]: 37.6% | viability, T/C [15]: 35.7% | viability, T/C [16]: 13.4% | viability, T/C [17]: 5.07% | viability, T/C [18]: 2.36% | viability, T/C [19]: 3.78% | viability, T/C [20]: 3.32% | viability, T/C [21]: 1.74% | viability, T/C [22]: 0.47% | viability, T/C [23]: 0.07% | viability, T/C [24]: 0.17% | viability, T/C [25]: 0.25% | viability, T/C [26]: 0.28% | viability, T/C [27]: 0.28% | viability, T/C [28]: 0.31% | viability, T/C [29]: 0.29% | viability, T/C [30]: 0.36%

O=C(c1cc(Cc2n[nH]c(=O)c3ccccc23)ccc1F)N1CCN(C(=O)C2CC2)CC1 + Cn1nnc2c(C(N)=O)ncn2c1=O
IC50 (second compound 1 µM): 20000 nM | IC50 (second compound 3.16 µM): 21900 nM | IC50 (second compound 10 µM): 10200 nM | IC50 (second compound 31.6 µM): 2660 nM | IC50 (second compound 100 µM): 252 nM | viability, T/C (second compound 1 µM, first compound 0.0949 µM): 106% | viability, T/C (second compound 1 µM, first compound 0.3 µM): 99.2% | viability, T/C (second compound 1 µM, first compound 0.949 µM): 105% | viability, T/C (second compound 1 µM, first compound 3 µM): 106% | viability, T/C (second compound 1 µM, first compound 9.49 µM): 73.9% | viability, T/C (second compound 1 µM, first compound 30 µM): 37% | viability, T/C (second compound 3.16 µM, first compound 0.0949 µM): 112% | viability, T/C (second compound 3.16 µM, first compound 0.3 µM): 109% | viability, T/C (second compound 3.16 µM, first compound 0.949 µM): 108% | viability, T/C (second compound 3.16 µM, first compound 3 µM): 102% | viability, T/C (second compound 3.16 µM, first compound 9.49 µM): 68.5% | viability, T/C (second compound 3.16 µM, first compound 30 µM): 43.1% | viability, T/C (second compound 10 µM, first compound 0.0949 µM): 120% | viability, T/C (second compound 10 µM, first compound 0.3 µM): 111% | viability, T/C (second compound 10 µM, first compound 0.949 µM): 118% | viability, T/C (second compound 10 µM, first compound 3 µM): 81.6% | viability, T/C (second compound 10 µM, first compound 9.49 µM): 54.3% | viability, T/C (second compound 10 µM, first compound 30 µM): 30.1% | viability, T/C (second compound 31.6 µM, first compound 0.0949 µM): 110% | viability, T/C (second compound 31.6 µM, first compound 0.3 µM): 103% | viability, T/C (second compound 31.6 µM, first compound 0.949 µM): 83.7% | viability, T/C (second compound 31.6 µM, first compound 3 µM): 46.2% | viability, T/C (second compound 31.6 µM, first compound 9.49 µM): 28.1% | viability, T/C (second compound 31.6 µM, first compound 30 µM): 25.8% | viability, T/C (second compound 100 µM, first compound 0.0949 µM): 60.2% | viability, T/C (second compound 100 µM, first compound 0.3 µM): 48.7% | viability, T/C (second compound 100 µM, first compound 0.949 µM): 32.9% | viability, T/C (second compound 100 µM, first compound 3 µM): 25.4% | viability, T/C (second compound 100 µM, first compound 9.49 µM): 21.1% | viability, T/C (second compound 100 µM, first compound 30 µM): 19%
